Experimental data reported in US6310095A, “Inhibitors of protein isoprenyl transferases” (University of Pittsburgh, priority 1998, dated 2001).
Where a name gives a salt, the structure may show the parent alone.

Each compound was assayed against T1, protein farnesyltransferase (Rattus norvegicus, UniProt Q02293+Q04631) (assay: in vitro inhibition of protein farnesyltransferase (scintillation proximity assay, biotin-K Ras B fragment)). Conditions: at 1 × 10^-5 M.
T1 construct: Rat brain protein farnesyltransferase activity is measured; from tissue; host or cells: rat brain; purified according to Reiss et al., Cell 62:81-88 (1990), steps one through three
Type: biochemical
Procedure, shortened: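 Scintillation proximity read-out of farnesylation, using a biotinylated K Ras B fragment (0.1 mM final) in place of biotin-lamin. Enzyme purified from rat brain; results given as % inhibition.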
Compound CSCC[C@H](NC(=O)c1ccc(CNCC(C)(C)CN(C)C)cc1-c1ccccc1)C(=O)O [Example 639] has an inhibition at 10 µM of 44%.
COc1cc2c(cc1OC)C(CNCc1ccc(C(=O)N[C@@H](CCSC)C(=O)O)c(-c3ccccc3)c1)=CC(C1CCCCC1)C2 (some centres unmarked) [Example 659] showed an inhibition at 10 µM of 55%.
CSCC[C@H](NC(=O)c1ccc(CNCCC2CCCCC2)cc1-c1ccccc1)C(=O)O [Example 663] gave an inhibition at 10 µM of 43%.
With C=C[C@@H](CC1CCCCC1)NCc1ccc(C(=O)N[C@@H](CCSC)C(=O)O)c(-c2ccccc2)c1 [Example 664] the inhibition at 10 µM was 75%.

Same assay, conditions: at 1 × 10^-6 M
In the case of CSCCC(NC(=O)c1ccc(CNC(CO)c2ccccc2)cc1-c1ccccc1)C(=O)O (centres unmarked) [Example 657], the “% inhibition of farnesyltransferase” value is reported as 32%.
CSCCC(NC(=O)c1ccc(CNC(CO)c2ccccc2)cc1-c1ccccc1)C(=O)O (centres unmarked) [Example 658] was tested, and the “% inhibition of farnesyltransferase” value was 73%.

Same assay, conditions: at 1 × 10^-6 M; read-out: % inhibition of farnesyltransferase
For CSCC[C@H](NC(=O)c1ccc(CNCCC2CCCCC2)cc1-c1ccccc1C)C(=O)O [Example 607, N-[4-(N-2-cyclohexylethylaminomethyl)-2-(2-methylphenyl)benzoyl]methionine Trifluoroacetate Salt], the inhibition at 1 µM was 96%.
With CSCC[C@H](NC(=O)c1ccc(CN(CCC2CCCCC2)C(=O)N(C)C)cc1-c1ccccc1C)C(=O)O [Example 610, N-[4-(N-(N,N-dimethylaminocarbonyl)-N-(2-cyclohexylethyl)aminomethyl)-2-(2-methylphenyl)benzoyl]methionine] the inhibition at 1 µM was 94%.
In the case of CSCC[C@H](NC(=O)c1ccc(CN[C@H](C)CC2CCCCC2)cc1-c1ccccc1C)C(=O)O [Example 613, N-[4-(3-cyclohexylpropan-2-ylaminomethyl)-2-(2-methylphenyl)benzoyl]methionine], the inhibition at 1 µM is reported as 97%.
CSCC[C@H](NC(=O)c1ccc(CN[C@H](CO)CC2CCCCC2)cc1-c1ccccc1C)C(=O)O [Example 617, N-[4-(3-cyclohexylpropan-1-ol-2-ylaminomethyl)-2-(2-methylphenyl)benzoyl]methionine] showed an inhibition at 1 µM of 99%.
CCS(=O)(=O)C[C@H](CC1CCCCC1)NCc1ccc(C(=O)N[C@@H](CCSC)C(=O)O)c(-c2ccccc2C)c1 [Example 620, N-[4-(3-cyclohexyl-1-ethylsulfonylpropan-2-ylaminomethyl)-2-(2-methylphenyl)benzoyl]methionine Lithium Salt] was tested, and the inhibition at 1 µM was 98%.
Compound CSCC[C@H](NC(=O)c1ccc(CNCCS)cc1-c1ccccc1)C(=O)O [Example 626] has an inhibition at 1 µM of 61%.
CSCC[C@H](NC(=O)c1ccc(CNCCSC(C)(C)C)cc1-c1ccccc1)C(=O)O [Example 627] was tested, and the inhibition at 1 µM was 85%.
For CSCC[C@H](NC(=O)c1ccc(CNCC(O)CO)cc1-c1ccccc1)C(=O)O (some centres unmarked) [Example 632], the inhibition at 1 µM was 43%.
Compound CSCCC(CO)NCc1ccc(C(=O)N[C@@H](CCSC)C(=O)O)c(-c2ccccc2)c1 (some centres unmarked) [Example 633] has an inhibition at 1 µM of 32%.
CSCC[C@H](NC(=O)c1ccc(CNCCN(C(C)C)C(C)C)cc1-c1ccccc1)C(=O)O [Example 636] was tested, and the inhibition at 1 µM was 72%.
CSCC[C@H](NC(=O)c1ccc(CNCCN2CCCC2)cc1-c1ccccc1)C(=O)O [Example 641] was tested, and the inhibition at 1 µM was 34%.
For CSCC[C@H](NC(=O)c1ccc(CNc2ccccc2F)cc1-c1ccccc1)C(=O)O [Example 642], the inhibition at 1 µM was 48%.
CSCC[C@H](NC(=O)c1ccc(CNc2ccccc2C(N)=O)cc1-c1ccccc1)C(=O)O [Example 644] was tested, and the inhibition at 1 µM was 54%.
CSCC[C@H](NC(=O)c1ccc(CNc2ccccc2Oc2ccccc2)cc1-c1ccccc1)C(=O)O [Example 645] was tested, and the inhibition at 1 µM was 37%.
CCOC(=O)c1ccc(NCc2ccc(C(=O)N[C@@H](CCSC)C(=O)O)c(-c3ccccc3)c2)cc1 [Example 646] showed an inhibition at 1 µM of 58%.
CSCC[C@H](NC(=O)c1ccc(CN(CCC#N)Cc2ccccc2)cc1-c1ccccc1)C(=O)O [Example 649] was tested, and the inhibition at 1 µM was 86%.
With COc1ccccc1CNCc1ccc(C(=O)N[C@@H](CCSC)C(=O)O)c(-c2ccccc2)c1 [Example 650] the inhibition at 1 µM was 68%.
Work on COc1cccc(CNCc2ccc(C(=O)N[C@@H](CCSC)C(=O)O)c(-c3ccccc3)c2)c1 [Example 652] yielded an inhibition at 1 µM of 41%.
In the case of CSCC[C@H](NC(=O)c1ccc(CNCc2ccc(N)cc2)cc1-c1ccccc1)C(=O)O [Example 653], the inhibition at 1 µM is reported as 62%.
With COc1ccc(CNCc2ccc(C(=O)N[C@@H](CCSC)C(=O)O)c(-c3ccccc3)c2)c(OC)c1 [Example 655] the inhibition at 1 µM was 35%.
In the case of CSCC[C@H](NC(=O)c1ccc(CNCC(O)c2cccc(O)c2)cc1-c1ccccc1)C(=O)O (some centres unmarked) [Example 661], the inhibition at 1 µM is reported as 45%.
CSCC[C@H](NC(=O)c1ccc(CNC(CO)Cc2ccc(Cl)cc2)cc1-c1ccccc1)C(=O)O (some centres unmarked) [Example 662] was tested, and the inhibition at 1 µM was 68%.
CSCC[C@H](NC(=O)c1ccc(CN[C@@H](/C=C\CC(C)C)CC2CCCCC2)cc1-c1ccccc1)C(=O)O [Example 665] gave an inhibition at 1 µM of 55%.
CSCC[C@H](NC(=O)c1ccc(CN[C@H](/C=C\CC(C)C)CC2CCCCC2)cc1-c1ccccc1)C(=O)O [Example 666] showed an inhibition at 1 µM of 82%.
CSCC[C@H](NC(=O)c1ccc(CNCCSc2ccccc2)cc1-c1ccccc1)C(=O)O [Example 667] showed an inhibition at 1 µM of 83%.
Compound CSCC[C@H](NC(=O)c1ccc(CNc2ccccc2CCO)cc1-c1ccccc1)C(=O)O [Example 671] has an inhibition at 1 µM of 36%.

Same assay, conditions: at 1 × 10^-7 M; read-out: % inhibition of farnesyltransferase
Work on CSCC[C@H](NC(=O)c1ccc(CN[C@@H](CO)C2CCCCC2)cc1-c1ccccc1C)C(=O)O [Example 604, N-[4-(2-cyclohexylethan-1-ol-2-ylaminomethyl)-2-(2-methylphenyl)benzoyl]methionine Lithium Salt] yielded an inhibition at 0.1 µM of 86%.
For CSCC[C@H](NC(=O)c1ccc(CN(CCC2CCCCC2)S(C)(=O)=O)cc1-c1ccccc1C)C(=O)O [Example 611, N-[4-(N-(2-cyclohexylethyl)-N-methanesulfonylaminomethyl)-2-(2-methylphenyl)benzol]methionine Lithium Salt], the inhibition at 0.1 µM was 95%.
In the case of CCCC[C@H](CC1CCCCC1)NCc1ccc(C(=O)N[C@@H](CCSC)C(=O)O)c(-c2ccccc2C)c1 [Example 615, N-[4-(6-cyclohexylhexan-5-ylaminomethyl)-2-(2-methylphenyl)benzoyl]methionine Lithium Salt], the inhibition at 0.1 µM is reported as 94%.
For CSCC[C@H](NC(=O)c1ccc(CN[C@@H](CO)CC2CCCCC2)cc1-c1ccccc1C)C(=O)O [Example 618, N-[4-(3-cyclohexylpropan-1-ol-2-ylaminomethyl)-2-(2-methylphenyl)benzoyl]methionine Trifluoroacetate Salt], the inhibition at 0.1 µM was 89%.
For CCS(=O)(=O)C[C@H](CC1CCCCC1)NCc1ccc(C(=O)N[C@@H](CCS(C)(=O)=O)C(=O)O)c(-c2ccccc2C)c1 [Example 621, N-[4-(3-cyclohexyl-1-ethylsulfonylpropan-2-ylaminomethyl)-2-(2-methylphenyl)benzoyl]-2-amino-4-methanesulfonylbutanoic acid Lithium Salt], the inhibition at 0.1 µM was 98%.
CSCC[C@H](NC(=O)c1ccc(CN[C@H](CSC(C)(C)C)CC2CCCCC2)cc1-c1ccccc1C)C(=O)O [Example 622, N-[4-(3-cyclohexyl-1-t-butylthiopropan-2-ylaminomethyl)-2-(2-methylphenyl)benzoyl]methionine Lithium Salt] was tested, and the inhibition at 0.1 µM was 95%.
With CSCC[C@H](NC(=O)c1ccc(CN[C@H](CSc2ccccc2)CC2CCCCC2)cc1-c1ccccc1C)C(=O)O [Example 623, N-[4-(3-cyclohexyl-1-phenylthiopropan-2-ylaminomethyl)-2-(2-methylphenyl)benzoyl]methionine Lithium Salt] the inhibition at 0.1 µM was 96%.

Same assay, conditions: at 1 × 10^-8 M
CCSC[C@H](CC1CCCCC1)OCc1ccc(C(=O)N[C@@H](CCSC)C(=O)O)c(-c2ccccc2C)c1 [Example 606] was tested, and the “% inhibition of farnesyltransferase” value was 93%.

Same assay, conditions: at 1 × 10^-8 M; read-out: % inhibition of farnesyltransferase
In the case of CSCC[C@H](NC(=O)c1ccc(CN(CCC2CCCCC2)S(=O)(=O)c2ccccc2)cc1-c1ccccc1C)C(=O)O [Example 612, N-[4-(N-benzenenesulfonyl-N-(2-cyclohexylethyl)aminomethyl)-2-(2-methylphenyl)benzoyl]methionine Lithium Salt], the inhibition at 0.01 µM is reported as 96%.
Work on CC[C@H](CC1CCCCC1)NCc1ccc(C(=O)N[C@@H](CCSC)C(=O)O)c(-c2ccccc2C)c1 [Example 614, N-[4-(4-cyclohexylbutan-3-ylaminomethyl)-2-(2-methylphenyl)benzoyl]methionine Lithium Salt] yielded an inhibition at 0.01 µM of 92%.
Work on C=C[C@H](CC1CCCCC1)NCc1ccc(C(=O)N[C@@H](CCSC)C(=O)O)c(-c2ccccc2C)c1 [Example 619, N-[4-(2-cyclohexylprop-1-en-2-ylaminomethyl)-2-(2-methylphenyl)benzoyl]methionine Lithium Salt] yielded an inhibition at 0.01 µM of 95%.

Same assay, conditions: read-out: % inhibition of farnesyltransferase
CSCC[C@H](NC(=O)c1ccc(CN(CCC2CCCCC2)Cc2ccccc2)cc1-c1ccccc1C)C(=O)O [Example 605, N-[4-(N-benzyl-N-(2-cyclohexylethyl)aminomethyl)-2-(2-methylphenyl)benzoyl]methionine Lithium Salt] gave an inhibition at 0.01 µM of 68%.
In the case of CSCC[C@H](NC(=O)c1ccc(CN(C)CCC2CCCCC2)cc1-c1ccccc1C)C(=O)O [Example 608, N-[4-(N-(2-cyclohexylethyl)-N-methylaminomethyl)-2-(2-methylphenyl)benzoyl]methionine Lithium Salt], the inhibition at 0.01 µM is reported as 91%.
CSCC[C@H](NC(=O)c1ccc(CN(CCC2CCCCC2)C(C)=O)cc1-c1ccccc1C)C(=O)O [Example 609, N-[4-(N-acetyl-N-(2-cyclohexylethyl)aminomethyl)-2-(2-methylphenyl)benzoyl]methionine Lithium Salt] gave an inhibition at 0.1 µM of 95%.
In the case of CSCC[C@H](NC(=O)c1ccc(CNC(CC2CCCCC2)C2CCCCC2)cc1-c1ccccc1C)C(=O)O (some centres unmarked) [Example 616, N-[4-(1,2-dicyclohexylethylaminomethyl)-2-(2-methylphenyl)benzoyl]methionine Lithium Salt], the inhibition at 0.1 µM is reported as 95%.
